Several values for one entry are separate records, joined by “and”; a condition that tells them apart may be missing. Equal values may be shown once.
What was measured:
[1] = in vivo; cited from earlier work
[2] = cited from earlier work
[3] = Storage stability / shelf life of intra-intestinal gel; type: physicochemical
[4] = biological target: T1, peripheral dopamine decarboxylase (Homo sapiens, UniProt P20711); conditions: KINSON prescribing information; cited from earlier work
T1 construct: host or cells: patients (peripheral tissues)
T1 sequence (P20711 1-480): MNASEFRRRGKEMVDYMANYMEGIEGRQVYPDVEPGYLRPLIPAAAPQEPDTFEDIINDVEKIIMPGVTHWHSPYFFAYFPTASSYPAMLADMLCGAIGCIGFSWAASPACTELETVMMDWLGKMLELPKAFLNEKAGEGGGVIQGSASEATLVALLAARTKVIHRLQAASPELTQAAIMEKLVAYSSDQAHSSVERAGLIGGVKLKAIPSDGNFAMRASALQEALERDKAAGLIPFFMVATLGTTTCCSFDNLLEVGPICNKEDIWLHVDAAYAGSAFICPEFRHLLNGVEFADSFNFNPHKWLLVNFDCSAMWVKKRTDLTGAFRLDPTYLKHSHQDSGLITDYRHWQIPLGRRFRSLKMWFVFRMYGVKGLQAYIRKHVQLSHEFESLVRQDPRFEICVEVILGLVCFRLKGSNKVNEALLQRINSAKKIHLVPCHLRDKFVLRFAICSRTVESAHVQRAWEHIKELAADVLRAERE

[5] = cited from earlier work; remark: listed apart in the source
[6] = in the presence of COMT inhibitors; literature reports; cited from earlier work
[7] = intravenous administration (3 mg/kg); cited from earlier work

In the case of `C[C@@](Cc1ccc(O)c(O)c1)(NN)C(=O)O` [Carbidopa, (−)-L-α-hydrazino-α-methyl-β-(3,4-dihydroxybenzene) propanoic acid monohydrate], the “crossing of the blood-brain barrier” value [1] is listed as “does not cross the blood-brain barrier”, the solubility in water [2] is listed as “slightly soluble in water” and the “effect of storage in a light reducing container on degradation” value ([3]; light reducing container, such as an aluminum bag) is listed as “some positive effect”. The “dose at which peripheral dopamine decarboxylase is saturated” value [4] was 70-100 mg per day.

In the case of `N[C@@H](Cc1ccc(O)c(O)c1)C(=O)O` [Levodopa, (−)-L-α-amino-β-(3,4-dihydroxybenzene) propanoic acid], the “crossing of the blood-brain barrier” value [1] is given as “does cross the blood-brain barrier”, the bioavailability ([5]; administered via DUODOPA gel, same as in a tablet) is given as 81-98% and the “fraction metabolized to dopamine before levodopa reaches the brain” value ([5]; intake of levodopa alone) is given as “more than 90%”. The solubility in water [2] was “slightly soluble in water” and the “stability in intra-intestinal gel” value ([3]; prior art LCIG and gel compositions of the invention) was “relatively stable”.

In the case of `Cc1ccc(C(=O)c2cc(O)c(O)c([N+](=O)[O-])c2)cc1` [Tolcapone, (3,4-Dihydroxy-5-nitrophenyl)(4-methylphenyl)methanone], the Levodopa bioavailablity increase [6] is given as 33% and 25% and the elimination half-life [7] is given as 2.9 h.

In the case of `NCCc1ccc(O)c(O)c1` [dopamine, 3,4-dihydroxyphenethylamine], the “crossing of the blood-brain barrier” value [1] is listed as “does not cross the blood-brain barrier”.

Source: US12251368B2, “Continuous administration of pharmaceutical composition for treatment of neurodegenerative disorders” (InTrance Medical Systems Inc., priority 2018, dated 2025)
